# How the values were obtained:
# [1] = target: CDK2/Cyclin E1 full length (Homo sapiens (Human), UniProt P24941); assay: CDK2/Cyclin E1 full length mobility shift assay; type: biochemical
# GSK3β (H350L) = GSK3β (H350L) (Homo sapiens (Human), UniProt P49841); details: read-out: GSK3β Ki
# Chain of GSK3β (H350L) (P49841 whole entry, stated change not applied): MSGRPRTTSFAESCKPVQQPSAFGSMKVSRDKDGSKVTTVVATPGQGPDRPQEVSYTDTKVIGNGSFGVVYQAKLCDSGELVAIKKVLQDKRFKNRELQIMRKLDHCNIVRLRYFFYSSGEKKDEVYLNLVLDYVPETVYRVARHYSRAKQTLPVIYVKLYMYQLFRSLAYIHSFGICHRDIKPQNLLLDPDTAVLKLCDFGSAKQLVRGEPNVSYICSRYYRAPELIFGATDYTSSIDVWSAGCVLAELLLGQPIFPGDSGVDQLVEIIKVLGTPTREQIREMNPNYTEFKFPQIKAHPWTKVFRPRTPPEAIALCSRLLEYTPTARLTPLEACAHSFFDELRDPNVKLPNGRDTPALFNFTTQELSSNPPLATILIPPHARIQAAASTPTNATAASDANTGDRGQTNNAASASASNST
# Description: The assay was initiated with the addition of ATP, following 15 minutes pre-incubation of enzyme and inhibitor at room temperature in the reaction mixture. The reaction was stopped after 30 minutes at room temperature by the addition of 50 μL of 80 mM EDTA.
Structure (SMILES),Ki [1],Ki (GSK3β (H350L))
"CCCNC(=O)O[C@H]1CC[C@@H](c2cc(NC(=O)c3ccc(OC)nc3)n[nH]2)C1 [Example 182, (1S,3R)-3-(3-{[(6-methoxypyridin-3-yl)carbonyl]amino}-1H-pyrazol-5-yl)cyclopentyl propylcarbamate]",0.82 nM,90.6 nM
"Cc1nnc(CC(=O)Nc2cc([C@H]3CC[C@@H](OC(=O)NC(C)(C)C)C3)[nH]n2)o1 [Example 298, (1R,3S)-3-(3-{[(5-methyl-1,3,4-oxadiazol-2-yl)acetyl]amino}-1H-pyrazol-5-yl)cyclopentyl tert-butylcarbamate]",0.68 nM,72 nM
"C[C@]1(O)CC[C@H](NC(=O)O[C@@H]2CC[C@H](c3cc(NC(=O)Cc4cc(F)cc(F)c4)n[nH]3)C2)CC1 [Example 573, (1R,3S)-3-(3-{[(3,5-difluorophenyl)acetyl]amino}-1H-pyrazol-5-yl)cyclopentyl (trans-4-hydroxy-4-methylcyclohexyl)carbamate]",0.83 nM,14.1 nM
"CCCNC(=O)O[C@H]1CC[C@@H](c2cc(NC(=O)c3cn(C)nc3C)n[nH]2)C1 [Example 174, (1S,3R)-3-(3-{[(1,3-dimethyl-1H-pyrazol-4-yl)carbonyl]amino}-1H-pyrazol-5-yl)cyclopentyl propylcarbamate]",3 nM,> 95.3 nM
"CCCCNC(=O)O[C@@H]1CC[C@H](c2cc(NC(=O)Cc3ccno3)n[nH]2)C1 [Example 259, (1R,3S)-3-{3-[(1,2-oxazol-5-ylacetyl)amino]-1H-pyrazol-5-yl}cyclopentyl butylcarbamate]",0.68 nM,17.4 nM
"COc1cccc(CC(=O)Nc2cc([C@H]3CC[C@@H](OC(=O)NC4(C)CC4)C3)[nH]n2)n1 [Example 434, (1R,3S)-3-(3-{[(6-methoxypyridin-2-yl)acetyl]amino}-1H-pyrazol-5-yl)cyclopentyl (1-methylcyclopropyl)carbamate]",0.48 nM,39.8 nM
"Cc1cnc(CC(=O)Nc2cc([C@@H]3CC[C@H](OC(=O)NC(C)C)C3)[nH]n2)o1 [Example 270, (1S,3R)-3-(3-{[(5-methyl-1,3-oxazol-2-yl)acetyl]amino}-1H-pyrazol-5-yl)cyclopentyl propan-2-ylcarbamate]",0.86 nM,39.9 nM
"C[C@H]1COCCN1C(=O)O[C@@H]1CC[C@H](c2cc(NC(=O)Cc3cc(F)cc(F)c3)n[nH]2)C1 [Example 644, (1R,3S)-3-(3-{[(3,5-difluorophenyl)acetyl]amino}-1H-pyrazol-5-yl)cyclopentyl (3S)-3-methylmorpholine-4-carboxylate]",0.33 nM,8.71 nM
"CCCNC(=O)O[C@H]1CC[C@@H](c2cc(NC(=O)Cc3cnc(OC)s3)n[nH]2)C1 [Example 189, (1S,3R)-3-(3-{[(2-methoxy-1,3-thiazol-5-yl)acetyl]amino}-1H-pyrazol-5-yl)cyclopentyl propylcarbamate]",0.38 nM,11.4 nM
"CCCNC(=O)O[C@H]1CC[C@@H](c2cc(NC(=O)Cc3ccccn3)n[nH]2)C1 [Example 171, (1S,3R)-3-{3-[(pyridin-2-ylacetyl)amino]-1H-pyrazol-5-yl}cyclopentyl propylcarbamate]",1.73 nM,18.2 nM
"Cc1cnc(CC(=O)Nc2cc([C@H]3CC[C@@H](OC(=O)N[C@@H](C)[C@@H](C)F)C3)[nH]n2)o1 [Example 383, (1R,3S)-3-(3-{[(5-methyl-1,3-oxazol-2-yl)acetyl]amino}-1H-pyrazol-5-yl)cyclopentyl [(2S,3R)-3-fluorobutan-2-yl]carbamate]",1.34 nM,43.2 nM
"CC[C@H](C)NC(=O)O[C@@H]1CC[C@H](c2cc(NC(=O)Cc3cnccn3)n[nH]2)C1 [Example 325, (1R,3S)-3-{3-[(pyrazin-2-ylacetyl)amino]-1H-pyrazol-5-yl}cyclopentyl (2S)-butan-2-ylcarbamate]",0.81 nM,54 nM
"CCCNC(=O)O[C@@H]1CC[C@H](c2cc(NC(=O)Cc3cnco3)n[nH]2)C1 [Example 167, (1R,3S)-3-{3-[(1,3-oxazol-5-ylacetyl)amino]-1H-pyrazol-5-yl}cyclopentyl propylcarbamate]",1.4 nM,33.9 nM
"COc1ccc(CC(=O)Nc2cc([C@@H]3CC[C@H](OC(=O)NC4CCOCC4)C3)[nH]n2)cc1 [Example 501, (1S,3R)-3-(3-{[(4-methoxyphenyl)acetyl]amino}-1H-pyrazol-5-yl)cyclopentyl tetrahydro-2H-pyran-4-ylcarbamate]",1.43 nM,12.5 nM
C[C@@H](CC(F)(F)F)NC(=O)O[C@@H]1CC[C@H](c2cc(NC(=O)Cc3cnn(C)c3)n[nH]2)C1 [Example 92],0.1 nM,16.6 nM
CC1(C)CCN1C(=O)O[C@@H]1CC[C@H](c2cc(NC(=O)Cc3ccccc3S(C)(=O)=O)n[nH]2)C1 [Example 142],0.22 nM,17.7 nM
CC[C@H](C)NC(=O)O[C@@H]1CC[C@H](c2cc(NC(=O)Cc3ccc4c(cnn4C)c3)n[nH]2)C1 [Example 48],0.17 nM,9.58 nM
CC(C)NC(=O)O[C@@H]1CC[C@H](c2cc(NC(=O)Cc3cnn(C)c3)n[nH]2)C1 [Example 60],0.33 nM,92.5 nM
"COc1ccc(CC(=O)Nc2cc([C@H]3CC[C@@H](OC(=O)N4C[C@@](C)(O)[C@@H]4C)C3)[nH]n2)cn1 [Example 627, (1R,3S)-3-(3-{[(6-methoxypyridin-3-yl)acetyl]amino}-1H-pyrazol-5-yl)cyclopentyl (2S,3R)-3-hydroxy-2,3-dimethylazetidine-1-carboxylate]",0.51 nM,2.76 nM
"CCCNC(=O)O[C@H]1CC[C@@H](c2cc(NC(=O)Cc3ccc(OC)cn3)n[nH]2)C1 [Example 186, (1S,3R)-3-(3-{[(5-methoxypyridin-2-yl)acetyl]amino}-1H-pyrazol-5-yl)cyclopentyl propylcarbamate]",1.03 nM,9.64 nM
"CCN(C)C(=O)O[C@@H]1CC[C@H](c2cc(NC(=O)Cc3ccc(C)nc3)n[nH]2)C1 [Example 237, (1R,3S)-3-(3-{[(6-methylpyridin-3-yl)acetyl]amino}-1H-pyrazol-5-yl)cyclopentyl ethyl(methyl)carbamate]",0.64 nM,5.23 nM
"CC(C)NC(=O)O[C@H]1CC[C@@H](c2cc(NC(=O)Cc3cnn(C)c3)n[nH]2)C1 [Example 266, (1S,3R)-3-(3-{[(1-methyl-1H-pyrazol-4-yl)acetyl]amino}-1H-pyrazol-5-yl)cyclopentyl propan-2-ylcarbamate]",0.39 nM,32.6 nM
"COc1ccc(CC(=O)Nc2cc([C@@H]3CC[C@H](OC(=O)N[C@H]4CC[C@@](C)(O)CC4)C3)[nH]n2)cn1 [Example 570, (1S,3R)-3-(3-{[(6-methoxypyridin-3-yl)acetyl]amino}-1H-pyrazol-5-yl)cyclopentyl (cis-4-hydroxy-4-methylcyclohexyl)carbamate]",0.35 nM,3.29 nM
COc1cc(CC(=O)Nc2cc([C@H]3CC[C@@H](OC(=O)N(C)C(C)C)C3)[nH]n2)ccn1 [Example 58],0.21 nM,9.86 nM
"CCCNC(=O)O[C@@H]1CC[C@H](c2cc(NC(=O)Cc3cnc(C)o3)n[nH]2)C1 [Example 176, (1R,3S)-3-(3-{[(2-methyl-1,3-oxazol-5-yl)acetyl]amino}-1H-pyrazol-5-yl)cyclopentyl propylcarbamate]",2.5 nM,46.1 nM

# — patent publication US11014911B2, “CDK2 inhibitors” (Pfizer Inc., priority 2019, dated 2021)
